The test system of data set [1] is NCI-H1975-HGF. The data set can be described thus: Efficacy study in xenograft model established with engineered cell line NCI-H1975-HGF in immunodeficient mice. It is filed as in vivo, B-NDG mice. The conditions noted are these: for NCI-H1975 HGF tumor volume (mm^3): mean ± standard error; for TGI (%) / ΔT/ΔC (%): Day 15 vs vehicle. The protocol: The efficacy of the test drugs in a xenograft model established with the engineered cell line NCI-H1975-HGF in immunodeficient mice was verified.
Table 1. Cell information
B-NDG mice, female, age: 8 weeks, weight: 18-22 g, purchased from Biocytogen.
• Vehicle: 20% solutol/80% 100 mM sodium acetate buffer pH 5.5; • ASK-MET: hydrochloride of the compound of Formula (II), prepared with 20% solutol/80% 100 mM sodium acetate buffer pH 5.5, concentration: 0.2 mg/mL; • ASK-EGFR: compound of Formula (I), prepared with 0.5% sodium carboxymethyl cellulose solution (0.5%CMC-Na), concentration: 2 mg/mL. • Solutol: polyethylene glycol-15 hydroxystearate; • 100 mM sodium acetate buffer pH 5.5; • 20% solutol/80% 100 mM sodium acetate buffer pH 5.5 means that the volume ratio of solutol to 100 mM sodium acetate buffer pH 5.5 in the drug solution was 20:80, the same below.
1) NCI-H1975-HGF was resuscitated and cultured in vitro to obtain 1.5*10^7 cells. 2) 15 8-10-week-old immunodeficient mice were adaptively raised for 1 week, and weighed. Table 2. Inoculation information
(§1) 4) After inoculation, the tumor volume and weight were measured twice a week. When the average tumor volume reached about 100 mm^3, the animals were randomly divided into 4 groups according to the tumor volume and weight, each group having 3 animals. The animals were immediately administered after grouping. The day of administration was regarded as day 0. Table 3. Grouping and administration information
After inoculation and before grouping, when the tumor was visible, the tumor volume of the test animals was measured once a week. After grouping, the tumor volume of animals in the experiment was measured twice a week. The tumor volume was measured by a two-way measurement method. The major and minor diameter of the tumor were measured by vernier caliper, and then the tumor volume was calculated by the formula TV = 1/2 × a × b^2, where a is the major diameter of the tumor and b is the minor diameter of the tumor.
At the end of the experiment, the following analysis methods were used for data analysis (Table 4). Table 4. Data analysis methods
For an experiment having two groups, T-Test analysis method is used; and for comparison of three or more groups, One-Way ANOVA method is used for analysis. For the potential synergistic effect, Two-Way ANOVA is used. There is a significant difference when p value is less than 0.05.

A short description of data set [2]: Body weight monitoring and daily observation in the NCI-H1975-HGF xenograft model. The class given is in vivo. The method, then:
as §1
After inoculation, the disease attack and death of animals were observed every working day. Daily observation includes tumor growth and the effects of drugs on test animals, such as changes in activity, changes in food and water intake, weight loss, appearance changes in hair and eyes, death and other clinical symptoms.
After inoculation and before grouping, the weight of test animals was measured once a week. After grouping, the weight of the test animals was measured twice a week.

Data set [3] is described as follows: Body weight change and tolerance of tumor-bearing mice in the LD1-0025-200662 PDX model. It is filed as in vivo. The conditions noted are these: for Rate of weight change (%) Day 21: Day 21 vs Day 0. The method, then:
Immunodeficient mice were subcutaneously inoculated with LD1-0025-200662 tumor tissue, and observed continuously till tumor formation. When the tumor volume reached about 1000 mm^3, the tumor tissue was peeled off and cut into tumor tissue with a size of about 3 mm × 3 mm × 3 mm (about 50-90 mg), and inoculated subcutaneously in NU/NU mice. The inoculated mice were observed and the growth of tumor was monitored. When the average tumor volume of tumor-bearing mice reached 193.40 mm^3, the mice were randomly divided into groups, administered and observed. The tumor volume and weight of all tumor-bearing mice were measured before grouping, and the tumor-bearing mice were randomly grouped according to the measured tumor volume. According to the principle of random block design, the mice were first divided into blocks according to the tumor volume, and then the mice in each block were randomly assigned to each treatment group. Table 9. Administration and treatment
During the whole experiment, the use and observation of test animals were carried out in accordance with the relevant regulations of Guide for the Care and Use of Laboratory Animals of AAALAC. After the test animals were inoculated with the tumor tissue, they were observed every day and the disease attack and death were recorded. During the routine experiment, all the test animals were monitored and recorded for behavior, food intake, water intake, weight change, hair luster and other abnormal conditions.
5.6 The weight of tumor-bearing mice was measured twice a week, and the change rate of weight gain of mice after administration was calculated: RCBW(%) = (BWi - BW0) / BW0 × 100, where BWi was the average weight at a certain measurement after administration, and BW0 was the average weight at the first administration.

Where [4] appears, read: Day 0, ASK-MET 2 mg/kg p.o. QD×15 (G2).
Where [5] appears, read: Day 2, ASK-MET 2 mg/kg p.o. QD×15 (G2).
The mark [6] stands for this setting: Day 5, ASK-MET 2 mg/kg p.o. QD×15 (G2).
[7] abbreviates: Day 8, ASK-MET 2 mg/kg p.o. QD×15 (G2).
[8] abbreviates: Day 12, ASK-MET 2 mg/kg p.o. QD×15 (G2).
[9] abbreviates: Day 15, ASK-MET 2 mg/kg p.o. QD×15 (G2).
[10] abbreviates: ASK-MET 2 mg/kg p.o. QD×15 (G2).
Where [11] appears, read: ASK-MET 1 mg/kg p.o. QD×(D0-D7) (G3).
The mark [12] stands for this setting: ASK-MET 3 mg/kg p.o. QD×(D0-D7) (G4).
The mark [13] stands for this setting: Day 0, ASK-EGFR 20 mg/kg p.o. QD×15 (G4).
Setting [14] is: Day 2, ASK-EGFR 20 mg/kg p.o. QD×15 (G4).
The mark [15] stands for this setting: Day 5, ASK-EGFR 20 mg/kg p.o. QD×15 (G4).
[16] abbreviates: Day 8, ASK-EGFR 20 mg/kg p.o. QD×15 (G4).
[17] abbreviates: Day 12, ASK-EGFR 20 mg/kg p.o. QD×15 (G4).
Setting [18] is: Day 15, ASK-EGFR 20 mg/kg p.o. QD×15 (G4).
Setting [19] is: ASK-EGFR 20 mg/kg p.o. QD×15 (G4).
[20] abbreviates: ASK-EGFR 20 mg/kg p.o. QD×21 (G2).

The results in this text go back to patent publication EP4740947A1, “PHARMACEUTICAL COMBINATION OF EGFR KINASE INHIBITOR AND C-MET KINASE INHIBITOR FOR TREATING TUMOR DISEASES” (Jiangsu AoSaiKang Pharmaceutical Co., Ltd., priority 2023, dated 2025).

Consider `CC(C)(O)CN1CCC(COc2cnc(-c3cccc(Cn4c(=O)ccn5c6cc(C#N)ccc6nc45)c3)nc2)CC1` [ASK-MET], for which the “NCI-H1975 HGF tumor volume (mm^3)” value turned out to be 96.28 ±7.10 mm^3 in data set [1] (setting [4]); 147.46 ±23.06 mm^3 in data set [1] (setting [5]); 274.61 ±85.69 mm^3 in data set [1] (setting [6]); 434.60 ±55.60 mm^3 in data set [1] (setting [7]); 658.86 ±111.99 mm^3 in data set [1] (setting [8]); 940.03±159.86 mm^3 in data set [1] (setting [9]). The “TGI (%)” value in data set [1] (setting [10]) was 28.48%. For the same compound, the “ΔT/ΔC (%)” value in data set [1] (setting [10]) was 71.52%. For the same compound, the “Weight” value in data set [2] (setting [4]) amounted to 20.3 ± 1.0 g; in data set [2] (setting [5]), 20.3 ± 1.3 g; in data set [2] (setting [6]), 20.5 ± 1.0 g; in data set [2] (setting [7]), 20.8 ± 0.3 g; in data set [2] (setting [8]), 20.8 ± 0.4 g; in data set [2] (setting [9]) it was 20.5 ± 0.4 g. In addition, the entries for the “Average weight (g) (Mean ± SEM) Day 0” value in data set [3] (setting [11]) and in data set [3] (setting [12]) were 24.08 ± 0.53 g and 24.02 ± 0.37 g, respectively. Moreover, the “Average weight (g) (Mean ± SEM) Day 21” value stood at 25.24 ± 0.50 g in data set [3] (setting [11]) and 25.03 ± 0.45 g in data set [3] (setting [12]). In addition, the “Rate of weight change (%) Day 21” value is recorded as 4.88±0.71% in data set [3] (setting [11]) and 4.19±1.08% in data set [3] (setting [12]).

In the case of `C=CC(=O)Nc1cc(Nc2ncc(Cl)c(Nc3ccc4ccccc4c3)n2)c(OC)cc1N(C)CCN(C)C` [ASK-EGFR, N-((5-((5-chloro-4-((naphthalen-2-yl)amino))pyrimidin-2-yl)amino)-2-((N-methyl-N-dimethylaminoethyl)amino)-4-methoxyphenyl) acrylamide], the “NCI-H1975 HGF tumor volume (mm^3)” value in data set [1] (setting [13]) was found to be 94.47 ±9.54 mm^3; in data set [1] (setting [14]) it was 154.47 ±24.23 mm^3; in data set [1] (setting [15]) it was 201.41 ±24.69 mm^3; in data set [1] (setting [16]) it was 357.90 ±31.91 mm^3; in data set [1] (setting [17]), 440.56 ±16.92 mm^3; in data set [1] (setting [18]), 589.86±36.92 mm^3. Further, in data set [1] (setting [19]), the “TGI (%)” value turned out to be 58.01%. Moreover, the “ΔT/ΔC (%)” value in data set [1] (setting [19]) came to 41.99%. The “Weight” value is 22.0 ± 0.1 g in data set [2] (setting [13]); 21.9 ± 0.2 g in data set [2] (setting [14]); 22.1 ± 0.1 g in data set [2] (setting [15]); 21.1 ± 0.3 g in data set [2] (setting [16]); 21.5 ± 0.6 g in data set [2] (setting [17]); 21.0 ± 0.5 g in data set [2] (setting [18]). Besides, in data set [3] (setting [20]), the “Average weight (g) (Mean ± SEM) Day 0” value was 23.24 ± 0.47 g. The “Average weight (g) (Mean ± SEM) Day 21” value in data set [3] (setting [20]) was found to be 24.75 ± 0.64 g. The “Rate of weight change (%) Day 21” value in data set [3] (setting [20]) was 6.45±1.28%.
